Test results taken from patent US6652835B1, “Targeting multimeric imaging agents through multilocus binding” (Epix Medical, Inc., priority 1999, dated 2003).
“And” between values parts separate entries of the source, which are not always exact repeats. Identical values can stand only once.

Assays:
[1] = Relaxivity of the free agent in the absence of target (20 MHz, 37° C.); format: physicochemical; conditions: no target
Method: (§1) The compounds of the present invention were evaluated for relaxivity using a Bruker NMS-120 Minispec NMR spectrometer operating at 0.47 Tesla (20 MHz H-1 Larmor frequency) and 37° C. T1 of water protons was determined by an inversion recovery pulse sequence using the instrument's software. Relaxivity was determined in the presence of the target (typically 4.5% HSA) by preparing 4 individual samples. The first contained only 4.5% HSA in phosphate buffered saline (PBS), and the other three contained ca. 20, 30, and 40 μM Gd(III), respectively, in addition to 4.5% HSA in PBS. The samples are incubated at 37 degrees C. for at least 15 minutes to ensure temperature equilibration before the T1 measurement is performed. The Gd(III) content of the samples is determined by inductively coupled plasma—mass spectrometry (ICP-MS). The relaxivity (per Gd(III) ion) is determined by plotting the relaxation rate (1/T1) in s^−1 versus the Gd(III) concentration in mM. The slope of a linear fit to the data gives the relaxivity. The relaxivity of the compounds in the absence of target is also determined in an analogous manner, except there is no target present.

[2] = target: T1, Human Serum Albumin (HSA) (Homo sapiens, UniProt P02768); experiment: Average bound relaxivity in the presence of 4.5% HSA (20 MHz, 37° C.); format: physicochemical; conditions: for R1bound/Gd^+3 mM^−1s^−1 (20 MHz) / Total R1bound mM^−1s^−1 (20 MHz): bound to HSA; for R1bound/Gd^+3 mM^−1s^−1 (20 MHz): per Gd(III); for Total R1bound mM^−1s^−1 (20 MHz): whole molecule
T1 sequence (P02768 25-609): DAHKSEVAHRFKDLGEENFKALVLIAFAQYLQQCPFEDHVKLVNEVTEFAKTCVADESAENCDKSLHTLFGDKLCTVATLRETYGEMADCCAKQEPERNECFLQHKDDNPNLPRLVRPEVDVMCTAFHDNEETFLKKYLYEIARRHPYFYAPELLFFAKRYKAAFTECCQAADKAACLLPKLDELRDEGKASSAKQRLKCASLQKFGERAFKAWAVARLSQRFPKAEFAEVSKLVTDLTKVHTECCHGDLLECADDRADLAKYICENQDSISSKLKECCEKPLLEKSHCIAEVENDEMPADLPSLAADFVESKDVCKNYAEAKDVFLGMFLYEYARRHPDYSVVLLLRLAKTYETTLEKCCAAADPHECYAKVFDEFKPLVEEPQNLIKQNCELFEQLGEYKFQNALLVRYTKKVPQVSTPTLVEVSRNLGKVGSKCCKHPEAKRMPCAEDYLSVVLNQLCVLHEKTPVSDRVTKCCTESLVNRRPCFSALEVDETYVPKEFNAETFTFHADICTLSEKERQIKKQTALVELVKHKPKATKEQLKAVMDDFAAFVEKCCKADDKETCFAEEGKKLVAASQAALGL
From the text: To understand Table 1, it is important to define the extent to which a target-binding MRI contrast agent can achieve its maximum possible relaxivity. This maximum relaxivity for a particular contrast agent is approximately equal to the relaxivity of the molecule when bound to a target (R1bound), such as Human Serum Albumin (HSA). The average ? bound is a normalized measure of the average relaxivity for all bound species under a standard set of conditions (such as a specific target or protein concentration, drug concentration, temperature, etc.) that is weighted by the bound population of each species. Therefore, since the value of ? bound is a normalized quantity, comparisons of relaxivities can be made among different molecules in the bound state by comparing values for ? bound. Comparison of the calculated ? bound values provides a convenient method for comparing compounds irrespective of their affinities for a target.
Calculating the average ( ? bound) requires measuring the relaxivity of the free chelate (R1free) as well as the observed relaxivity (R1obs) and percent binding of the agent to a target solution typically containing 4.5% of the target, e.g., HSA. The R1obs is a mole fraction (x) weighted average of R1free and R1bound: [formula]
as §1
The concentration of species bound to the target under these conditions is determined in a separate experiment using e.g. ultrafiltration or equilibrium dialysis. Knowledge of the amount of species bound to the target, the relaxivity in the presence of the target, and the relaxivity in the absence of the target allows the calculation of the average bound relaxivity as described herein.

[3] = target: T1, Human Serum Albumin (HSA); experiment: Percent binding to HSA (ultrafiltration); conditions: target HSA
From the text: The extent of binding of a TBM to a target, such as HSA or fibrin, can be assessed by a variety of equilibrium binding methods. For example, binding to HSA can be measured by ultrafiltration. In a typical binding measurement using ultrafiltration, the targeting group is mixed with 4.5% weight/volume HSA in a pH 7.4 buffer. The sample is loaded into a commercially available centrifugation apparatus equipped with a 30 KDa molecular weight cutoff filter (Millipore Ultrafree MC Low Binding Regenerated Cellulose 30 KDa mol. wt. cutoff catalog #UFC3LTK00), permeable to the targeting group, but not HSA. A small portion (5-10%) of the sample volume is filtered by centrifugation at 2000×g for 20 min through the cutoff filter, and the concentration of unbound targeting group in the sample is measured in the filtrate. The concentration of species bound to the target under these conditions is determined in a separate experiment using e.g. ultrafiltration or equilibrium dialysis. Knowledge of the amount of species bound to the target, the relaxivity in the presence of the target, and the relaxivity in the absence of the target allows the calculation of the average bound relaxivity as described herein.

[4] = target: T2, clot containing human fibrin (Homo sapiens, UniProt P02671+P02675+P02679); experiment: Rabbit jugular vein clot model, MR imaging; format: in vivo; conditions: MR images after injection (FIG. 14)
T2 construct: host or cells: clot formed in the clamped rabbit jugular vein from added human fibrinogen and thrombin
T2 sequence (P02671 36-629 limits assumed): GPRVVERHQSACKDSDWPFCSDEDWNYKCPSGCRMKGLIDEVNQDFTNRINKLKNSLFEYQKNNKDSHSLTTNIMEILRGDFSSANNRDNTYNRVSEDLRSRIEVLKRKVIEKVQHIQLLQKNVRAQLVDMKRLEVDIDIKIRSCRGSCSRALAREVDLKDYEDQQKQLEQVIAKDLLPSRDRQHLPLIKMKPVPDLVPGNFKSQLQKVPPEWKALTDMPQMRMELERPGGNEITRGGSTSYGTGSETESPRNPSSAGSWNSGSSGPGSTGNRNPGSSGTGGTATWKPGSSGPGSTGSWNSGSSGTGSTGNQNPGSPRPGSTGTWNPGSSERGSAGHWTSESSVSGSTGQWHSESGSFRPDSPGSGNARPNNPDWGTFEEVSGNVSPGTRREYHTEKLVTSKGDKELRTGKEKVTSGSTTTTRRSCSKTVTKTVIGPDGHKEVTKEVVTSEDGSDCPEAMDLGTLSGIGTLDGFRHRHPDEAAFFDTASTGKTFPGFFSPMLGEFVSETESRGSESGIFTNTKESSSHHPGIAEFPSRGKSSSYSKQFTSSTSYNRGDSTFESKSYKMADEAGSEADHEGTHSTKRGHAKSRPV
T2 sequence (P02675 45-491 limits assumed): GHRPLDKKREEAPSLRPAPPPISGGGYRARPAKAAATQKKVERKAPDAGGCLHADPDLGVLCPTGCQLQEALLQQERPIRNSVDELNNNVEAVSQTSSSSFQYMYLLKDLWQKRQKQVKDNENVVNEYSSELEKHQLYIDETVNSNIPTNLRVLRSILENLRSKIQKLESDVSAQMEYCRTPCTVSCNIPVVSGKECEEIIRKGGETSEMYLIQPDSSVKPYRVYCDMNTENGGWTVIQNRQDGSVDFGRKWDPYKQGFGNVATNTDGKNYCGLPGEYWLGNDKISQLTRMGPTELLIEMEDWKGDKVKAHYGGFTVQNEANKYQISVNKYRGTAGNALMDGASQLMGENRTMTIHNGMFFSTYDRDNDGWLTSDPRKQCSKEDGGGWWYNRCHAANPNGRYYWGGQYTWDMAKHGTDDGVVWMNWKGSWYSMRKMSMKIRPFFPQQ
T2 sequence (P02679 27-437 isoform P02679-2 limits assumed): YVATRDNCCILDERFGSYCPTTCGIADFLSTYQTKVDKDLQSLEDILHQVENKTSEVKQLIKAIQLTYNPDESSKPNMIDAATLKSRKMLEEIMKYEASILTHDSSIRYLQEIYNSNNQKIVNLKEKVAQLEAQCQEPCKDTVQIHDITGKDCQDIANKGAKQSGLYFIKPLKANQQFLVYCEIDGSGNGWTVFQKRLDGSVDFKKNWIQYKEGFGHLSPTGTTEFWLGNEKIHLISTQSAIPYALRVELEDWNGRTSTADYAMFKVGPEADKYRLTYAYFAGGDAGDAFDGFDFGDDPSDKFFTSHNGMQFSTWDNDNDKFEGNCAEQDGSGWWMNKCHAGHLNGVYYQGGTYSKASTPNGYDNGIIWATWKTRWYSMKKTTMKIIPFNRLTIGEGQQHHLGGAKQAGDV
Method: One animal model that may be used is the rabbit jugular vein clot model in which the jugular vein is clamped. The vein is clamped at two locations, and the rabbit blood between the clamps is removed. Human fibrinogen, rabbit red blood cells and thrombin are added to the vein between the clamps to generate a clot containing human fibrin. The clot is typically aged for 30 minutes.
In the rabbit jugular model, a typical machine is a 1.5 Tesla using a spoiled gradient (SPGR) MRI at 36/5/30 deg). Alternatively, a 3D GRE 44/10/30 deg. method of imaging may be used with a 1.5 Tesla machine. Alternatively, IR 2000/10/700 methods may be employed with a 1.5 Tesla.
FIG. 14 is a reproduction of a color photograph of the images obtained in an experiment using the assay given in Example 1.

| Structure (SMILES) | free relaxivity [1] [mM⁻¹ s⁻¹] | ratio of R1bound to R1free ([2]; HSA) | R1bound/Gd^+3 mM^−1s^−1 (20 MHz) [2] | Total R1bound mM^−1s^−1 (20 MHz) [2] | % Bound [3] [%] | fold increase in total relaxivity, two TBMs versus one TBM (M8-07) ([2]; HSA, relative to M8-07) [fold] | imaging of / binding to the clot [4] |
| --- | --- | --- | --- | --- | --- | --- | --- |
| Cc1cc(C)c(-c2ccc(CN(CCN(CCN(CCNC(=O)CNC(=O)CC(C(=O)[O-])N(CCN(CC(=O)[O-])CC(=O)[O-])CCN(CC(=O)[O-])CC(=O)[O-])C(=O)CNC(=O)CC(C(=O)[O-])N(CCN(CC(=O)[O-])CC(=O)[O-])CCN(CC(=O)[O-])CC(=O)[O-])C(=O)CNC(=O)CC(C(=O)[O-])N(CCN(CC(=O)[O-])CC(=O)[O-])CCN(CC(=O)[O-])CC(=O)[O-])C(=O)CNC(=O)CC(C(=O)[O-])N(CCN(CC(=O)[O-])CC(=O)[O-])CCN(CC(=O)[O-])CC(=O)[O-])cc2)c(C)c1.[Gd+3].[Gd+3].[Gd+3].[Gd+3] (stereo not drawn) [Compound M8-07] | 9.2 | 1.7 | 16.0 mM⁻¹ s⁻¹ and 16 mM⁻¹ s⁻¹ | 64.0 mM⁻¹ s⁻¹ and 64 mM⁻¹ s⁻¹ | 64.1 | – | – |
| Cc1cc(C)c(-c2ccc(CN(CCN(CCN(CCN(Cc3ccc(-c4c(C)cc(C)cc4C)cc3)C(=O)CNC(=O)CC(C(=O)[O-])N(CCN(CC(=O)[O-])CC(=O)[O-])CCN(CC(=O)[O-])CC(=O)[O-])C(=O)CNC(=O)CC(C(=O)[O-])N(CCN(CC(=O)[O-])CC(=O)[O-])CCN(CC(=O)[O-])CC(=O)[O-])C(=O)CNC(=O)CC(C(=O)[O-])N(CCN(CC(=O)[O-])CC(=O)[O-])CCN(CC(=O)[O-])CC(=O)[O-])C(=O)CNC(=O)CC(C(=O)[O-])N(CCN(CC(=O)[O-])CC(=O)[O-])CCN(CC(=O)[O-])CC(=O)[O-])cc2)c(C)c1.[Gd+3].[Gd+3].[Gd+3].[Gd+3] (stereo not drawn) [Compound M8-08] | 10.3 | 4.3 | 44.1 mM⁻¹ s⁻¹ | 176.5 mM⁻¹ s⁻¹ | 93.7 | 2.75 | – |
| CCCCc1ccc(C(=O)N(Cc2ccccc2)C2c3ccccc3CC2OP(=O)([O-])OCCC#CCN2CCN(C(=O)CNC(=O)CC(C(=O)[O-])N(CCN(CC(=O)[O-])CC(=O)[O-])CCN(CC(=O)[O-])CC(=O)[O-])CCN(C(=O)CNC(=O)CC(C(=O)[O-])N(CCN(CC(=O)[O-])CC(=O)[O-])CCN(CC(=O)[O-])CC(=O)[O-])CCN(C(=O)CNC(=O)CC(C(=O)[O-])N(CCN(CC(=O)[O-])CC(=O)[O-])CCN(CC(=O)[O-])CC(=O)[O-])CC2)cc1.[Gd+3].[Gd+3].[Gd+3] (stereo not drawn) [Compound M8-10] | – | – | 25.7 mM⁻¹ s⁻¹ | 77.1 mM⁻¹ s⁻¹ | 66.1 | – | – |
| O=C([O-])CN(CCN(CC(=O)[O-])CC(=O)O)CCN(CC(=O)[O-])CC(=O)O.[Gd+3] [Gd-DTPA, gadolinium diethylenetriaminepentaacetic acid] | – | – | – | – | – | – | does not bind |
